Assay results from PubChem BioAssay AID248 (DTP/NCI, 2004).
Inconclusive results and toxic doses are left out. No stated cut-off is given here; in the data, active means T/C of 150% or more; inactive means T/C below 125%.

System: L1210 leukemia ip in BDF1 mice, survival T/C
Experiment: NCI In Vivo Anticancer Drug Screen. Data for tumor model L1210 Leukemia (intraperitoneal) in B6D2F1 (BDF1) mice
Details: endpoint: mean survival time, higher = longer survival
Summary of the method: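 Transplanted-tumor mice were given test agent; controls received vehicle only. Survival readings from the two groups were divided (treated over control).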

[1] = dose: 100.0 mg/kg/injection, schedule: Q01DX009 (ip), vehicle: Klucel (hydroxypropylcellulose) (HPC)
[2] = dose: 200.0 mg/kg/injection, schedule: Q01DX009 (ip), vehicle: Klucel (hydroxypropylcellulose) (HPC)
[3] = dose: 400.0 mg/kg/injection, schedule: Q01DX009 (ip), vehicle: Klucel (hydroxypropylcellulose) (HPC)

Measured: T/C

Oc1cc(O)c(O)cc1O
inactive: dose: 6.25 mg/kg/injection, schedule: Q01DX009 (ip), vehicle: saline 102 % of control | dose: 6.25 mg/kg/injection, schedule: Q04DX003 (ip), vehicle: saline with Tween-80 93 % of control | dose: 12.5 mg/kg/injection, schedule: Q01DX009 (ip), vehicle: saline 102 % of control | dose: 12.5 mg/kg/injection, schedule: Q04DX003 (ip), vehicle: saline with Tween-80 97 % of control | dose: 25.0 mg/kg/injection, schedule: Q01DX009 (ip), vehicle: saline 110 % of control | dose: 25.0 mg/kg/injection, schedule: Q04DX003 (ip), vehicle: saline with Tween-80 98 % of control

COC1=C(O)C(C(O)CO)OC1=O (stereo not given)
inactive: dose: 25.0 mg/kg/injection, schedule: Q01DX009 (ip), vehicle: water 103 % of control | dose: 50.0 mg/kg/injection, schedule: Q01DX009 (ip), vehicle: water 110 % of control | dose: 100.0 mg/kg/injection, schedule: Q01DX009 (ip), vehicle: water 117 % of control | dose: 200.0 mg/kg/injection, schedule: Q01DX009 (ip), vehicle: water 101 % of control | dose: 400.0 mg/kg/injection, schedule: Q01DX009 (ip), vehicle: water 108 % of control

O=C(N(CCc1ccc(O)cc1)Cc1ccc2c(c1)OCO2)C(F)(F)F
inactive: dose: 100.0 mg/kg/injection, schedule: Q04DX003 (ip), vehicle: gum acacia 91 % of control | dose: 200.0 mg/kg/injection, schedule: Q04DX003 (ip), vehicle: gum acacia 91 % of control | dose: 400.0 mg/kg/injection, schedule: Q04DX003 (ip), vehicle: gum acacia 88 % of control

CC(Cl)CCN1CCCCC1 (stereo not given)
inactive: dose: 50.0 mg/kg/injection, schedule: Q01DX001 (ip), vehicle: saline 104 % of control

Cc1ccc(S(=O)(=O)OC2CS(=O)(=O)C2)cc1
inactive: dose: 100.0 mg/kg/injection, schedule: Q01DX009 (ip), vehicle: saline with Tween-80 100 % of control | dose: 100.0 mg/kg/injection, schedule: Q04DX003 (ip), vehicle: saline with Tween-80 105 % of control | dose: 200.0 mg/kg/injection, schedule: Q01DX009 (ip), vehicle: saline with Tween-80 95 % of control | dose: 200.0 mg/kg/injection, schedule: Q04DX003 (ip), vehicle: saline with Tween-80 100 % of control | dose: 400.0 mg/kg/injection, schedule: Q01DX009 (ip), vehicle: saline with Tween-80 105 % of control | dose: 400.0 mg/kg/injection, schedule: Q04DX003 (ip), vehicle: saline with Tween-80 97 % of control

CC(=O)CC(=O)OCc1ccccc1
inactive: dose: 100.0 mg/kg/injection, schedule: Q01DX009 (ip), vehicle: saline 93 % of control | dose: 200.0 mg/kg/injection, schedule: Q01DX009 (ip), vehicle: saline 92 % of control | dose: 400.0 mg/kg/injection, schedule: Q01DX009 (ip), vehicle: saline 95 % of control

Cc1ccc(C)c(NC(=O)Oc2ccc(Cl)cc2Cl)c1
inactive: dose: 25.0 mg/kg/injection, schedule: Q01DX009 (ip), vehicle: Klucel (hydroxypropylcellulose) (HPC) 87 % of control | dose: 50.0 mg/kg/injection, schedule: Q01DX009 (ip), vehicle: Klucel (hydroxypropylcellulose) (HPC) 100 % of control | [1] 110 % of control | dose: 100.0 mg/kg/injection, schedule: Q04DX003 (ip), vehicle: Klucel (hydroxypropylcellulose) (HPC) 90 % of control | dose: 200.0 mg/kg/injection, schedule: Q04DX003 (ip), vehicle: Klucel (hydroxypropylcellulose) (HPC) 94 % of control | dose: 400.0 mg/kg/injection, schedule: Q04DX003 (ip), vehicle: Klucel (hydroxypropylcellulose) (HPC) 106 % of control

CCCCCCCNC(=S)NNC(=O)c1ccncc1
inactive: [1] 97 % of control | [2] 100 % of control | [3] 100 % of control

CN(C)C1c2cc(Br)ccc2-c2ccc([N+](=O)[O-])cc21 (stereo not given)
inactive: dose: 100.0 mg/kg/injection, schedule: Q01DX001 (ip), vehicle: carboxymethylcellulose (CMC) 94 % of control | dose: 200.0 mg/kg/injection, schedule: Q01DX001 (ip), vehicle: carboxymethylcellulose (CMC) 103 % of control | dose: 400.0 mg/kg/injection, schedule: Q01DX001 (ip), vehicle: carboxymethylcellulose (CMC) 100 % of control

Oc1c(Br)cc(Br)cc1C=Nc1ccccc1.Oc1c(Br)cc(Br)cc1C=Nc1ccccc1.[Co]
inactive: dose: 100.0 mg/kg/injection, schedule: Q04DX003 (ip), vehicle: saline 92 % of control | dose: 200.0 mg/kg/injection, schedule: Q04DX003 (ip), vehicle: saline 98 % of control | dose: 400.0 mg/kg/injection, schedule: Q04DX003 (ip), vehicle: saline 98 % of control

C[n+]1cccc2cc(Br)ccc21
inactive: dose: 5.0 mg/kg/injection, schedule: Q01DX001 (ip), vehicle: other 100 % of control | dose: 10.0 mg/kg/injection, schedule: Q01DX001 (ip), vehicle: other 107 % of control | dose: 20.0 mg/kg/injection, schedule: Q01DX001 (ip), vehicle: other 111 % of control | dose: 40.0 mg/kg/injection, schedule: Q01DX001 (ip), vehicle: other 105 % of control

Cc1ccc(NC(=O)Nc2cccc(F)c2)cc1C
inactive: [1] 94 % of control | [2] 97 % of control | [3] 95 % of control

Clc1ccc2c(c1)-c1ccccc1C1=NCCN12
inactive: dose: 5.0 mg/kg/injection, schedule: Q01DX009 (ip), vehicle: Klucel (hydroxypropylcellulose) (HPC) 95 % of control | dose: 10.0 mg/kg/injection, schedule: Q01DX009 (ip), vehicle: Klucel (hydroxypropylcellulose) (HPC) 101 % of control | dose: 10.0 mg/kg/injection, schedule: Q04DX003 (ip), vehicle: Klucel (hydroxypropylcellulose) (HPC) 101 % of control | dose: 20.0 mg/kg/injection, schedule: Q04DX003 (ip), vehicle: Klucel (hydroxypropylcellulose) (HPC) 110 % of control
